Source: patent US5880160A (priority 1995, dated 1999)

Legend:
MCF7-ADR (resistant) = test: cells; format: cell-based, human; conditions: for MCF7-ADR/MCF7: ratio of IC50 in MCF7-ADR to IC50 in MCF-7; for IC50: MCF7-ADR resistant cell line, in vitro
MCF-7 (human breast) = test: cells; format: cell-based; conditions: MCF-7 human breast cell line, in vitro

Row | SMILES | MCF7-ADR/MCF7 (MCF7-ADR (resistant)) | IC50 (MCF7-ADR (resistant); Homo sapiens, NCI/ADR-RES) | IC50 (MCF-7 (human breast); MCF7) | IC50 (MCF7-ADR (resistant)) | IC50 (MCF-7 (human breast))
1 | COc1cc2c(c(OC)c1OC)-c1ccc(OC)c(=O)cc1[C@@H](NC(C)=O)CC2 [Colchicine, colchicine, reference compound] | 25.45 |  |  |  | 
2 | COc1cc2c(c(OC)c1OC)-c1ccc(SC)c(=O)cc1[C@@H](NC(=O)C(F)(F)C(F)(F)F)CC2 [Compound I, N-deacetyl-N-pentafluoro-propionyl-thiocolchicine] | 4.2 | 26 ± 2.3 nM | 6.2 ± 0.4 nM |  | 
3 | CCCCCC/C=C/C#CCCCCCCCC(=O)Oc1cc2c(c(OC)c1OC)-c1ccc(SC)c(=O)cc1C(NC(=O)C(F)(F)C(F)(F)F)CC2 (stereo not shown) [Compound II, N-deacetyl-N-pentafluoropropionyl-3-O-ximenoyl-thiocolchicine] | 2.2 |  |  | 11 ± 1.9 nM | 5 ± 0.2 nM
4 | COc1c(OC2C=CCC2)cc2c(c1OC)-c1ccc(SC)c(=O)cc1[C@@H](NC(=O)C(F)(F)C(F)(F)F)CC2 (stereo partly shown) [Compound III, N-deacetyl-N-pentafluoropropionyl-3-O-demethyl-3-O-cyclopentenyl-thiocolchicine] | 1.7 | 7 ± 0.4 nM | 4.1 ± 0.3 nM |  | 
5 | COc1cc2c(c(OC)c1OC)-c1ccc(SC)c(=O)cc1[C@@H](NC(=O)C(F)(F)C(F)(F)C(F)(F)F)CC2 [Compound IV, N-deacetyl-N-heptafluorobutyroyl-thiocolchicine] | 9.7 | 31 ± 1.9 nM | 3.2 ± 0.2 nM |  | 
6 | CC(=O)O[C@H]1C(=O)[C@@]2(C)[C@H]([C@H](OC(=O)c3ccccc3)[C@]3(O)C[C@H](OC(=O)[C@H](O)[C@@H](NC(=O)c4ccccc4)c4ccccc4)C(C)=C1C3(C)C)[C@]1(OC(C)=O)CO[C@@H]1C[C@@H]2O [Taxol, reference compound] | 59.01 | 360 ± 7.8 nM | 6.1 ± 0.3 nM |  | 
